The source of these data is patent publication US9340590B2 (priority 2011, dated 2016).

Assay in all cases: cell-based
Assay [1] deals with hNav1.3 (Homo sapiens, UniProt Q9NY46). The conditions noted are these: IonWorks Quattro, use-dependent block, hNav1.3; read-out: IWQ Use Nav1.3. In general terms: In patch-clamp work, channel activity is measured electrically.
The target of assay [2] is hNav1.5 (Homo sapiens, UniProt Q14524). As to conditions: IonWorks Quattro, use-dependent block, hNav1.5; read-out: IWQ Use Nav1.5.
The target in assay [3] is hNav1.7 (Homo sapiens, UniProt Q15858). The assay is classed as cell-based. The conditions noted are these: IonWorks Quattro, use-dependent block, hNav1.7; read-out: IWQ Use Nav1.7.
Chain of hNav1.7 (Q15858 whole entry, looked up): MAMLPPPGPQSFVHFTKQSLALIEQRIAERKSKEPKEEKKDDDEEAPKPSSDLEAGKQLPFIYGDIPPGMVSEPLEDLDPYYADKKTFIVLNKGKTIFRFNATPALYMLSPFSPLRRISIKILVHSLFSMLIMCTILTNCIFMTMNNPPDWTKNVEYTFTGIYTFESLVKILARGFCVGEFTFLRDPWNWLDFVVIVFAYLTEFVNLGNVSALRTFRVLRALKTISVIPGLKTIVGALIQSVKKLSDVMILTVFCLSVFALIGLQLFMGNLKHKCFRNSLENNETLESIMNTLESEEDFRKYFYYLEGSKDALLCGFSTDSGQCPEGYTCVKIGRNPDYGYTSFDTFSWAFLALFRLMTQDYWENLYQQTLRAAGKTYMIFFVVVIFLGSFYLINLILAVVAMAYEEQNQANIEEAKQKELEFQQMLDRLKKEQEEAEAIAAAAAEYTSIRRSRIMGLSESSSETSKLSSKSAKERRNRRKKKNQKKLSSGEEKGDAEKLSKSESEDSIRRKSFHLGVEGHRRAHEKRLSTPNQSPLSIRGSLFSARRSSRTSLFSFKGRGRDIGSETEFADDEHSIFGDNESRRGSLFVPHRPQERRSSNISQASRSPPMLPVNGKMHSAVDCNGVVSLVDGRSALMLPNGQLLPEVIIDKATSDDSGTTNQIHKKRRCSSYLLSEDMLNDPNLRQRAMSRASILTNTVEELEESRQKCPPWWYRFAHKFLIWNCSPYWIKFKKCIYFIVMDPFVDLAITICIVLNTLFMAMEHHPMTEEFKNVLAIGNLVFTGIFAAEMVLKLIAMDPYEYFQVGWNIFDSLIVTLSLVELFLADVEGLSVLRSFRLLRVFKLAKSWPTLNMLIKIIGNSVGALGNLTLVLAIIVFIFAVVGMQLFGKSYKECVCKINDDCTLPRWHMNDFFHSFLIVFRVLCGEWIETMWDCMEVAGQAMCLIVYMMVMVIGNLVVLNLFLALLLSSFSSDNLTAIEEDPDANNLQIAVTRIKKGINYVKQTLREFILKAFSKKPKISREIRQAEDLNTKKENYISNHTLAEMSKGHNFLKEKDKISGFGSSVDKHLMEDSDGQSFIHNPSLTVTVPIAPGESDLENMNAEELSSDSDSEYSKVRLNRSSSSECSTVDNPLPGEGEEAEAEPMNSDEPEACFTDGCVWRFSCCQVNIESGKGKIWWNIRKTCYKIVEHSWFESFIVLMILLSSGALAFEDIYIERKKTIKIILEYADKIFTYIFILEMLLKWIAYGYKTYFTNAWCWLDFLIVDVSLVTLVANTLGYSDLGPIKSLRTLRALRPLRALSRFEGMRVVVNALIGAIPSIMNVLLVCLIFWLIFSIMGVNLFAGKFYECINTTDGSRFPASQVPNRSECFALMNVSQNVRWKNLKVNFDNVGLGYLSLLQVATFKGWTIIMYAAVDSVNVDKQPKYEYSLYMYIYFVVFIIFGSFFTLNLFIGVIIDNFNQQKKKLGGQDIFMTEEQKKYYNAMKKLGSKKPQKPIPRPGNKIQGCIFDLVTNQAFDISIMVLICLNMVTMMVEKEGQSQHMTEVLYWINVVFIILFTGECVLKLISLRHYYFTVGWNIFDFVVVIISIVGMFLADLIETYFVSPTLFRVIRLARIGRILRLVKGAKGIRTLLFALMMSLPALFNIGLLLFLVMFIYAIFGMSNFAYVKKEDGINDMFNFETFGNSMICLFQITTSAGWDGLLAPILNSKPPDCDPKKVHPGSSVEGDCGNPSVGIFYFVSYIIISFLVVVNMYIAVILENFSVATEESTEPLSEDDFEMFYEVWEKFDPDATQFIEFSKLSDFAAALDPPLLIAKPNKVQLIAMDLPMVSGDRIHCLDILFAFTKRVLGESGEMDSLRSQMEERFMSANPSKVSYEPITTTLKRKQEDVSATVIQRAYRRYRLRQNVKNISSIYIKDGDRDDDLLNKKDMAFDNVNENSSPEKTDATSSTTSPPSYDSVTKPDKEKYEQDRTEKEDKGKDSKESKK

pIC50: −log10 of the molar value. Positions of bridges follow the written chain, without caps; N, C: chain ends. Non-standard residues stand in square brackets, D forms with d. Residues, ends and D or L forms follow the SMILES beside them. Arg(Me) = CNC(=N)NCCC[C@H](N)C(=O)O; hArg = N=C(N)NCCCC[C@H](N)C(=O)O; hCit = NC(=O)NCCCC[C@H](N)C(=O)O; Cit = NC(=O)NCCC[C@H](N)C(=O)O; Orn = NCCC[C@H](N)C(=O)O; Dap = NC[C@H](N)C(=O)O

Chain of hNav1.3 (Q9NY46 whole entry, looked up): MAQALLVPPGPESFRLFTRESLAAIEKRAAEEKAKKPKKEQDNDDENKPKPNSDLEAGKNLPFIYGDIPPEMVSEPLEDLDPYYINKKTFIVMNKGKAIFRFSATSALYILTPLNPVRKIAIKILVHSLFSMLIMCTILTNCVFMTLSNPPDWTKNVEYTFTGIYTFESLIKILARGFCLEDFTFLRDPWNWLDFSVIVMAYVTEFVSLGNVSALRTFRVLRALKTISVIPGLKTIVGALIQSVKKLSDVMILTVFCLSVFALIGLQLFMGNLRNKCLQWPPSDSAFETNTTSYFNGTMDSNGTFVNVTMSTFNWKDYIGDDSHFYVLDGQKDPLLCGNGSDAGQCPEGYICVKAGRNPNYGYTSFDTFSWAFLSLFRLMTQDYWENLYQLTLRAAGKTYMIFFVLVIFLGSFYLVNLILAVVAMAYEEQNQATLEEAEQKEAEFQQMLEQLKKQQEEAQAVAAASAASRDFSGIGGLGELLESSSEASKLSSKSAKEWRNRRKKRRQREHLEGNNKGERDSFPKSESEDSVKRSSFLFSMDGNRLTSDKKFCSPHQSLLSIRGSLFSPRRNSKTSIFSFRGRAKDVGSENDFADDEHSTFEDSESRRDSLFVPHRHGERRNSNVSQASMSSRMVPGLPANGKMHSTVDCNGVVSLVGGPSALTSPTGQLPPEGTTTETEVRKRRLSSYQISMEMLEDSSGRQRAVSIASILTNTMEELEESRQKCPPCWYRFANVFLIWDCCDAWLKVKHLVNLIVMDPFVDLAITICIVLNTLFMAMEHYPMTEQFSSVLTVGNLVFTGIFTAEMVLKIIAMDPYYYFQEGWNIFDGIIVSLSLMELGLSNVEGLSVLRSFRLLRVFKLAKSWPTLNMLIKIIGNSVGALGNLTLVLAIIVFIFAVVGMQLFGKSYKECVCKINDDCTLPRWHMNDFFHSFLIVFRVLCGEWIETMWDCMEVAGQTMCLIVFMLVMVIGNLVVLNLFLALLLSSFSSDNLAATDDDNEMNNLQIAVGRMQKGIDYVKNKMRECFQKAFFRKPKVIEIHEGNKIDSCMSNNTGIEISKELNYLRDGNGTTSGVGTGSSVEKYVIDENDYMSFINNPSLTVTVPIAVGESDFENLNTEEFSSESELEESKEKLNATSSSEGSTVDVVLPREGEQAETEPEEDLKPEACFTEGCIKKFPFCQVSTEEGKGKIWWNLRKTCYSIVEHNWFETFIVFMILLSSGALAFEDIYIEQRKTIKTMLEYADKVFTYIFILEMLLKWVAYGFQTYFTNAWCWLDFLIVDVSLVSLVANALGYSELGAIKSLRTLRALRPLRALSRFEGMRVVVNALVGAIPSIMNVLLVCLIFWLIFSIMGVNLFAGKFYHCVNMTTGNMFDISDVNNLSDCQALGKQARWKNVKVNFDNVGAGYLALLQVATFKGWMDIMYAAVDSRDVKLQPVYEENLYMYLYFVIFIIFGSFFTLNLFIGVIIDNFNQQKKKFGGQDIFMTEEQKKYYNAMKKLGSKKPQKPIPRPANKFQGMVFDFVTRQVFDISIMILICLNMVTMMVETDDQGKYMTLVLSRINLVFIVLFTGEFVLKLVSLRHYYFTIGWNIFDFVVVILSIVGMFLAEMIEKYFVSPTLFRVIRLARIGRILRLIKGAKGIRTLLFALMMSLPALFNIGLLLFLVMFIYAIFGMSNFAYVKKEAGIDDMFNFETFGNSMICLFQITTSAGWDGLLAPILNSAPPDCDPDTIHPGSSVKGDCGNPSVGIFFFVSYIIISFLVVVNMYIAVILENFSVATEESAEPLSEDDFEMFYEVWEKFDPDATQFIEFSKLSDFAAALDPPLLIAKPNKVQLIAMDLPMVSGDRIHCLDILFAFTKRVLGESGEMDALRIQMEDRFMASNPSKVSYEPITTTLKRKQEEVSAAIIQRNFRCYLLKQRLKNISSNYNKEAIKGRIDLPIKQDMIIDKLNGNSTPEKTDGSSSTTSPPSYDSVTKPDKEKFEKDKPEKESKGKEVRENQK

In the case of `CC[C@H](C)[C@@H]1NC(=O)[C@@H]2CSSC[C@@H]3NC(=O)[C@H](C(C)C)NC(=O)[C@H](CC(C)C)NC(=O)[C@H](CC(N)=O)NC(=O)[C@@H]4CCCN4C(=O)[C@H](CCCNC(=N)N)NC(=O)[C@H](CSSC[C@H](NC(=O)[C@@H](N)CC(=O)O)C(=O)N[C@@H](CC(C)C)C(=O)NCC(=O)N[C@@H](C)C(=O)N[C@@H](CCSC)C(=O)N[C@@H](CCCNC(=N)N)C(=O)N[C@@H](CCCCN)C(=O)N2)NC(=O)[C@H](CSSC[C@@H](C(=O)N[C@@H](CCCCN)C(=O)N[C@@H](Cc2ccc(O)cc2)C(=O)N[C@H](C(=O)N[C@@H](Cc2ccccc2)C(N)=O)C(C)C)NC(=O)[C@H](Cc2c[nH]c4ccccc24)NC(=O)[C@H](CCCCNC(=N)N)NC(=O)[C@H](Cc2c[nH]cn2)NC(=O)[C@H]([C@@H](C)O)NC(=O)[C@H](CCCNC(=N)N)NC(=O)[C@H](CO)NC3=O)NC(=O)[C@H](CCCCN)NC(=O)[C@H](CC(=O)O)NC(=O)[C@H](CC(N)=O)NC(=O)[C@H](CC(=O)O)NC(=O)[C@@H]2CCCN2C1=O` [compound 744] (H-DCLGAMRKCIPDNDKCCRPNLVCSRTH[hArg]WCKYVF-NH2; disulfide 2-17, 9-23, 16-30), the pIC50 is 6.09 in assay [1], 4.40 in assay [2] and 6.33 in assay [3].
The like results for `CC[C@H](C)[C@@H]1NC(=O)[C@@H]2CSSC[C@@H]3NC(=O)[C@H](C(C)C)NC(=O)[C@H](CC(C)C)NC(=O)[C@H](CC(N)=O)NC(=O)[C@@H]4CCCN4C(=O)[C@H](CCCNC(=N)N)NC(=O)[C@H](CSSC[C@H](NC(=O)[C@@H](N)CC(=O)O)C(=O)N[C@@H](CC(C)C)C(=O)NCC(=O)N[C@@H](C)C(=O)N[C@@H](CCSC)C(=O)N[C@@H](CCCNC(=N)N)C(=O)N[C@@H](CCCCN)C(=O)N2)NC(=O)[C@H](CSSC[C@@H](C(=O)N[C@@H](CCCCN)C(=O)N[C@@H](Cc2ccc(O)cc2)C(=O)N[C@H](C(=O)N[C@@H](Cc2ccccc2)C(N)=O)C(C)C)NC(=O)[C@H](Cc2c[nH]c4ccccc24)NC(=O)[C@H](CCCNC(=N)NC)NC(=O)[C@H](Cc2c[nH]cn2)NC(=O)[C@H]([C@@H](C)O)NC(=O)[C@H](CCCNC(=N)N)NC(=O)[C@H](CO)NC3=O)NC(=O)[C@H](CCCCN)NC(=O)[C@H](CC(=O)O)NC(=O)[C@H](CC(N)=O)NC(=O)[C@H](CC(=O)O)NC(=O)[C@@H]2CCCN2C1=O` [compound 745] (H-DCLGAMRKCIPDNDKCCRPNLVCSRTH[Arg(Me)]WCKYVF-NH2; disulfide 2-17, 9-23, 16-30) were, in that order, 6.30, 4.40 and 6.60.
The like results for `CC[C@H](C)[C@@H]1NC(=O)[C@@H]2CSSC[C@@H]3NC(=O)[C@H](C(C)C)NC(=O)[C@H](CC(C)C)NC(=O)[C@H](CC(N)=O)NC(=O)[C@@H]4CCCN4C(=O)[C@H](CCCNC(=N)N)NC(=O)[C@H](CSSC[C@H](NC(=O)[C@@H](N)CC(=O)O)C(=O)N[C@@H](CC(C)C)C(=O)NCC(=O)N[C@@H](C)C(=O)N[C@@H](CCSC)C(=O)N[C@@H](CCCNC(=N)N)C(=O)N[C@@H](CCCCN)C(=O)N2)NC(=O)[C@H](CSSC[C@@H](C(=O)N[C@@H](CCCCN)C(=O)N[C@@H](Cc2ccc(O)cc2)C(=O)N[C@H](C(=O)N[C@@H](Cc2ccccc2)C(N)=O)C(C)C)NC(=O)[C@H](Cc2c[nH]c4ccccc24)NC(=O)[C@H](CCCN)NC(=O)[C@H](Cc2c[nH]cn2)NC(=O)[C@H]([C@@H](C)O)NC(=O)[C@H](CCCNC(=N)N)NC(=O)[C@H](CO)NC3=O)NC(=O)[C@H](CCCCN)NC(=O)[C@H](CC(=O)O)NC(=O)[C@H](CC(N)=O)NC(=O)[C@H](CC(=O)O)NC(=O)[C@@H]2CCCN2C1=O` [compound 746] (H-DCLGAMRKCIPDNDKCCRPNLVCSRTH[Orn]WCKYVF-NH2; disulfide 2-17, 9-23, 16-30) were, in that order, 6.12, 4.68 and 6.54.
The like results for `CC[C@H](C)[C@@H]1NC(=O)[C@@H]2CSSC[C@@H]3NC(=O)[C@H](C(C)C)NC(=O)[C@H](CC(C)C)NC(=O)[C@H](CC(N)=O)NC(=O)[C@@H]4CCCN4C(=O)[C@H](CCCNC(=N)N)NC(=O)[C@H](CSSC[C@H](NC(=O)[C@@H](N)CC(=O)O)C(=O)N[C@@H](CC(C)C)C(=O)NCC(=O)N[C@@H](C)C(=O)N[C@@H](CCSC)C(=O)N[C@@H](CCCNC(=N)N)C(=O)N[C@@H](CCCCN)C(=O)N2)NC(=O)[C@H](CSSC[C@@H](C(=O)N[C@@H](CCCCN)C(=O)N[C@@H](Cc2ccc(O)cc2)C(=O)N[C@H](C(=O)N[C@@H](Cc2ccccc2)C(N)=O)C(C)C)NC(=O)[C@H](Cc2c[nH]c4ccccc24)NC(=O)[C@H](CN)NC(=O)[C@H](Cc2c[nH]cn2)NC(=O)[C@H]([C@@H](C)O)NC(=O)[C@H](CCCNC(=N)N)NC(=O)[C@H](CO)NC3=O)NC(=O)[C@H](CCCCN)NC(=O)[C@H](CC(=O)O)NC(=O)[C@H](CC(N)=O)NC(=O)[C@H](CC(=O)O)NC(=O)[C@@H]2CCCN2C1=O` [compound 747] (H-DCLGAMRKCIPDNDKCCRPNLVCSRTH[Dap]WCKYVF-NH2; disulfide 2-17, 9-23, 16-30) were, in that order, 6.11, 4.42 and 6.43.
For the molecule `CC[C@H](C)[C@@H]1NC(=O)[C@@H]2CSSC[C@@H]3NC(=O)[C@H](C(C)C)NC(=O)[C@H](CC(C)C)NC(=O)[C@H](CC(N)=O)NC(=O)[C@@H]4CCCN4C(=O)[C@H](CCCNC(=N)N)NC(=O)[C@H](CSSC[C@H](NC(=O)[C@@H](N)CC(=O)O)C(=O)N[C@@H](CC(C)C)C(=O)NCC(=O)N[C@@H](C)C(=O)N[C@@H](CCSC)C(=O)N[C@@H](CCCNC(=N)N)C(=O)N[C@@H](CCCCN)C(=O)N2)NC(=O)[C@H](CSSC[C@@H](C(=O)N[C@@H](CCCCN)C(=O)N[C@@H](Cc2ccc(O)cc2)C(=O)N[C@H](C(=O)N[C@@H](Cc2ccccc2)C(N)=O)C(C)C)NC(=O)[C@H](Cc2c[nH]c4ccccc24)NC(=O)[C@H](CCCNC(N)=O)NC(=O)[C@H](Cc2c[nH]cn2)NC(=O)[C@H]([C@@H](C)O)NC(=O)[C@H](CCCNC(=N)N)NC(=O)[C@H](CO)NC3=O)NC(=O)[C@H](CCCCN)NC(=O)[C@H](CC(=O)O)NC(=O)[C@H](CC(N)=O)NC(=O)[C@H](CC(=O)O)NC(=O)[C@@H]2CCCN2C1=O` [compound 748] (H-DCLGAMRKCIPDNDKCCRPNLVCSRTH[Cit]WCKYVF-NH2; disulfide 2-17, 9-23, 16-30), the pIC50 in assay [1] is 5.57; in assay [2] it was 4.62; in assay [3] it was 6.06.
Consider `CC[C@H](C)[C@@H]1NC(=O)[C@@H]2CSSC[C@@H]3NC(=O)[C@H](C(C)C)NC(=O)[C@H](CC(C)C)NC(=O)[C@H](CC(N)=O)NC(=O)[C@@H]4CCCN4C(=O)[C@H](CCCNC(=N)N)NC(=O)[C@H](CSSC[C@H](NC(=O)[C@@H](N)CC(=O)O)C(=O)N[C@@H](CC(C)C)C(=O)NCC(=O)N[C@@H](C)C(=O)N[C@@H](CCSC)C(=O)N[C@@H](CCCNC(=N)N)C(=O)N[C@@H](CCCCN)C(=O)N2)NC(=O)[C@H](CSSC[C@@H](C(=O)N[C@@H](CCCCN)C(=O)N[C@@H](Cc2ccc(O)cc2)C(=O)N[C@H](C(=O)N[C@@H](Cc2ccccc2)C(N)=O)C(C)C)NC(=O)[C@H](Cc2c[nH]c4ccccc24)NC(=O)[C@H](CCCCNC(N)=O)NC(=O)[C@H](Cc2c[nH]cn2)NC(=O)[C@H]([C@@H](C)O)NC(=O)[C@H](CCCNC(=N)N)NC(=O)[C@H](CO)NC3=O)NC(=O)[C@H](CCCCN)NC(=O)[C@H](CC(=O)O)NC(=O)[C@H](CC(N)=O)NC(=O)[C@H](CC(=O)O)NC(=O)[C@@H]2CCCN2C1=O` [compound 749] (H-DCLGAMRKCIPDNDKCCRPNLVCSRTH[hCit]WCKYVF-NH2; disulfide 2-17, 9-23, 16-30), for which the results for the pIC50 in assay [1], in assay [2] and in assay [3] were 5.64, 4.69 and 6.10, respectively.
The like results for `CC[C@H](C)[C@@H]1NC(=O)[C@@H]2CSSC[C@@H]3NC(=O)[C@H](C(C)C)NC(=O)[C@H](CC(C)C)NC(=O)[C@H](CC(N)=O)NC(=O)[C@@H]4CCCN4C(=O)[C@H](CCCNC(=N)N)NC(=O)[C@H](CSSC[C@H](NC(=O)[C@@H](N)CC(=O)O)C(=O)N[C@@H](CC(C)C)C(=O)NCC(=O)NCC(=O)N[C@@H](C(C)C)C(=O)N[C@@H](CCCNC(=N)N)C(=O)N[C@@H](CCCCN)C(=O)N2)NC(=O)[C@H](CSSC[C@@H](C(=O)N[C@@H](CCCCN)C(=O)N[C@@H](Cc2ccc(O)cc2)C(=O)N[C@H](C(=O)N[C@@H](Cc2ccccc2)C(N)=O)C(C)C)NC(=O)[C@H](Cc2c[nH]c4ccccc24)NC(=O)[C@H](CCCCN)NC(=O)[C@H](Cc2c[nH]cn2)NC(=O)[C@H]([C@@H](C)O)NC(=O)[C@H](CCCNC(=N)N)NC(=O)[C@H](CO)NC3=O)NC(=O)[C@H](CCCCN)NC(=O)[C@H](CC(=O)O)NC(=O)[C@H](CC(N)=O)NC(=O)[C@H](CC(=O)O)NC(=O)[C@@H]2CCCN2C1=O` [compound 751] (H-DCLGGVRKCIPDNDKCCRPNLVCSRTHKWCKYVF-NH2; disulfide 2-17, 9-23, 16-30) were, in that order, under 5.30, 4.59 and under 5.30.
The like results for `CC[C@H](C)[C@@H]1NC(=O)CNC(=O)CNC(=O)[C@H](CC(C)C)NC(=O)[C@@H](NC(=O)[C@@H](N)CC(=O)O)CSSC[C@@H]2NC(=O)[C@@H]3CSSC[C@@H](C(=O)N[C@@H](CCCCN)C(=O)N[C@@H](Cc4ccc(O)cc4)C(=O)N[C@H](C(=O)N[C@@H](Cc4ccccc4)C(N)=O)C(C)C)NC(=O)[C@H](Cc4c[nH]c5ccccc45)NC(=O)[C@H](CCCCN)NC(=O)[C@H](Cc4c[nH]cn4)NC(=O)[C@H]([C@@H](C)O)NC(=O)[C@H](CCCNC(=N)N)NC(=O)[C@H](CO)NC(=O)[C@H](CSSC[C@H](NC(=O)[C@H](CCCCN)NC(=O)[C@H](CCCNC(=N)N)NC1=O)C(=O)N[C@@H]([C@@H](C)CC)C(=O)N1CCC[C@H]1C(=O)N[C@@H](CC(=O)O)C(=O)N[C@@H](CC(N)=O)C(=O)N[C@@H](CC(=O)O)C(=O)N[C@@H](CCCCN)C(=O)N3)NC(=O)[C@H](C(C)C)NC(=O)[C@H](CC(C)C)NC(=O)[C@H](CC(N)=O)NC(=O)[C@@H]1CCCN1C(=O)[C@H](CCCNC(=N)N)NC2=O` [compound 752] (H-DCLGGIRKCIPDNDKCCRPNLVCSRTHKWCKYVF-NH2; disulfide 2-17, 9-23, 16-30) were, in that order, under 5.30, 4.60 and under 5.30.
